Literature values as cited in patent US5897876A, “Emulsified drug delivery system” (Shire Laboratories Inc., priority 1997, dated 1999).

Test system: peptide transport
Conditions: in other vehicles; "known"

| SMILES | promote peptide transport |
| --- | --- |
| CCCCC/C=C\C/C=C\CCCCCCCC(=O)O [linoleic acid] | known to promote peptide transport in other vehicles |
| CCCCCCCC/C=C\CCCCCCCC(=O)O [oleic acid] | known to promote peptide transport in other vehicles |
